Source: patent publication US20220273754A1, “SS-31 FOR THE PREVENTION AND/OR TREATMENT OF ANEURYSM” (FUNDACIÓ INSTITUT DE RECERCA DE L'HOSPITAL DE LA SANTA CREU …, priority 2019, published 2022)
Non-standard residues stand in square brackets, D forms with d. No end group written: not given here.

Assays:
[1] = system: ApoE−/− mice infused with Ang II; assay: Survival of Ang II-infused ApoE−/− mice; assay type: in vivo; conditions: 3 mg/kg/day with Ang II 1000 ng/kg/min by osmotic minipump, 28 days
Description: (§1) The studies were developed in ApoE^−/− mice bred in the facility. The animals were infused with Ang II dissolved in saline (1000 ng/kg/min) by means of osmotic minipumps (model 1004, Alzet) implanted subcutaneously in the interscapular space of the mice previous anesthesia with isoflurane. The procedure lasted approximately 15 minutes per animal. Immediately after surgery, antibiotics (penicillin, 22,000 u/Kg, i.m.) and analgesics (buprenorphine 0.05 mg/Kg, i.m.) were administered to prevent infections and limit discomfort in the animals. Further, mice were kept on a heating pad until they woke up after surgery and were carefully monitored during the post-surgery period.
(§2) A group of mice infused with Ang II were treated with SS-31 in the form of chloride and dissolved in saline (3 mg/kg/day). Another group of animals infused with Ang II were treated with the SS-20 peptide also in the form of chloride, dissolved in saline and at the same dose. Both were administered together with Ang II by osmotic mini pump during the whole study (28 days). The control group consisted of ApoE^−/− mice infused with saline.

[2] = system: ApoE−/− mice infused with Ang II; assay: Aortic diameter and aneurysm incidence by ultrasonography in Ang II-infused ApoE−/− mice; assay type: in vivo; conditions: 28 days; for aortic diameter: 3 mg/kg/day with Ang II 1000 ng/kg/min by osmotic minipump, ultrasonography and macroscopic visualization; for incidence of AAA: 3 mg/kg/day with Ang II 1000 ng/kg/min, aneurysmal = external diameter >= 1.5 mm
Description: as §1, §2
The diameter of the aorta was evaluated weekly by abdominal echography using an ultrasound equipment (Vevo2100 Imaging systems; Visualsonics) with a 30 MHz transducer. The mice were anesthetized by inhalation of 1.5% isofluorane and secured in supine position on a thermal platform. After shaving the precord region, the transducer was applied to the abdominal wall to measure the abdominal aorta. Those abdominal aortas with external diameters greater than or equal to 1.5 mm were considered aneurysmal. All measurements were made from the captured images using the analysis software provided by Visualsonics.
(§3) After 4 weeks, the animals were euthanized under intraperitoneal terminal anesthesia with a mixture of medetomidine (1 mg/kg) and ketamine (75 mg/kg) in saline (final volume of 200 μl), the aortas were collected immediately, examined to determine the presence of aneurysms and fixed in paraformaldehyde or frozen in liquid nitrogen for subsequent RNA extraction.

[3] = system: abdominal aorta of ApoE−/− mice infused with Ang II; assay: Histology (Masson's trichrome, orcein) of abdominal aorta of Ang II-infused ApoE−/− mice; assay type: in vivo; conditions: 3 mg/kg/day with Ang II 1000 ng/kg/min, 28 days
Description: as §1, §2, §3

[4] = system: MMP2; assay: MMP2 mRNA by real-time PCR in abdominal aorta of Ang II-infused ApoE−/− mice; assay type: in vivo; conditions: 3 mg/kg/day with Ang II 1000 ng/kg/min, 28 days; normalized to GAPDH
Description: as §1
as §2, with “saline. […]” for “saline.”
(§4) The expression levels (mRNA) of the metalloproteinases MMP2 and MMP9 in the abdominal aortas of the different study groups were also analyzed. […]

[5] = system: MMP9; assay: MMP9 mRNA by real-time PCR in abdominal aorta of Ang II-infused ApoE−/− mice; assay type: in vivo; conditions: 3 mg/kg/day with Ang II 1000 ng/kg/min, 28 days; normalized to GAPDH
Description: as §1
as §2, with “saline. […]” for “saline.”
as §4

[6] = system: mitochondrial permeability transition; conditions: cited from earlier work
[7] = system: reactive oxygen species (ROS) production and lipid peroxidation; conditions: direct inhibition; cited from earlier work
[8] = system: mitochondrial swelling and cytochrome c release; conditions: cited from earlier work
[9] = system: myocardial contractile force during ischemia-reperfusion; conditions: SS-20 given after ischemia; cited from earlier work
[10] = system: renal mitochondrial respiration; conditions: after ischemia; cited from earlier work
[11] = system: angiotensin II (AngII)-induced cardiac hypertrophy; conditions: in vivo; cited from earlier work
[12] = system: diabetic rats; conditions: cited from earlier work; for body weight: diabetic rats; for lipid metabolism: rat, in vivo
[13] = system: humans and rodents maintained on a high fat diet; conditions: cited from earlier work

Question: For “D-Arg-2′,6′-dimethyltyrosine-Lys-Phe-NH2 [SS-31]”, which survival rate [1] is on record?
Answer: Its survival rate is “significantly improved the survival rate”.

Question: And the aortic diameter [2]?
Answer: Its aortic diameter is “reduced the increase in aortic diameter significantly”.

Question: What about the “incidence of AAA” value [2] of the same substance?
Answer: The value was “significantly decreased the incidence of AAA”.

Question: And the “disorganization and rupture of elastic fibers (orcein staining)” value [3]?
Answer: Its value is “limited the disorganization and rupture of elastic fibers”.

Question: And the “vascular remodeling: collagen deposition (Masson's trichrome)” value [3]?
Answer: Its value is “attenuated by treatment with SS-31”.

Question: And the “aortic MMP2 expression (mRNA)” value [4]?
Answer: The value was “attenuated this effect”.

Question: What about the “aortic MMP9 expression (mRNA)” value [5] of the same substance?
Answer: The value was “attenuated this effect”.

Question: And the mitochondrial permeability transition [6]?
Answer: The mitochondrial permeability transition was “inhibits mitochondrial permeability transition”.

Question: And the “ROS production and lipid peroxidation” value [7]?
Answer: Its value is “directly inhibit reactive oxygen species (ROS) production and lipid peroxidation”.

Question: What about the “mitochondrial swelling and cytochrome c release” value [8] of the same substance?
Answer: The value was “inhibits mitochondrial swelling and cytochrome c release”.

Question: And the “protection of myocardial contractile force” value [9]?
Answer: Its value is “protects myocardial contractile force”.

Question: And the renal mitochondrial respiration [10]?
Answer: The renal mitochondrial respiration was “significantly improved renal mitochondrial respiration”.

Question: What about the “AngII-induced cardiac hypertrophy, fibrosis and diastolic dysfunction” value [11] of the same substance?
Answer: Its value is “ameliorates”.

Question: What about the body weight [12] of the same substance?
Answer: Its body weight is “useful in reducing body weight”.

Question: What about the lipid metabolism [12] of the same substance?
Answer: Its lipid metabolism is “beneficial effects on lipid metabolism”.

Question: And the insulin resistance [13]?
Answer: The insulin resistance was “attenuates insulin resistance”.

Question: With F[dR]FK-NH2 [SS-20] as the substance, how does the survival rate [1] read?
Answer: Its survival rate is “did not modify the survival rate”.

Question: And the aortic diameter [2]?
Answer: Its aortic diameter is “could not attenuate this increase in the aortic diameter”.

Question: What about the “incidence of AAA” value [2] of the same substance?
Answer: The value was “did not alter the aortic diameter nor the incidence of aneurysms”.

Question: And the “disorganization and rupture of elastic fibers (orcein staining)” value [3]?
Answer: Its value is “not observed in animals treated with SS-20”.

Question: And the “vascular remodeling: collagen deposition (Masson's trichrome)” value [3]?
Answer: The value was “not by treatment with SS-20”.

Question: And the “aortic MMP2 expression (mRNA)” value [4]?
Answer: The value was “did not modify the increase in the mRNA level”.

Question: And the “aortic MMP9 expression (mRNA)” value [5]?
Answer: Its value is “did not modify the increase in the mRNA level”.

Question: And the mitochondrial permeability transition [6]?
Answer: The mitochondrial permeability transition was “inhibits mitochondrial permeability transition”.

Question: What about the “ROS production and lipid peroxidation” value [7] of the same substance?
Answer: Its value is “only SS-31 was demonstrated to directly inhibit”.

Question: And the “protection of myocardial contractile force” value [9]?
Answer: The value was “offered no protection”.

Question: And the renal mitochondrial respiration [10]?
Answer: The renal mitochondrial respiration was “significantly improved renal mitochondrial respiration”.

Question: What about the body weight [12] of the same substance?
Answer: The body weight was “useful in reducing body weight”.

Question: And the lipid metabolism [12]?
Answer: Its lipid metabolism is “beneficial effects on lipid metabolism”.
